In patent US12708665B2, “Anti-IL-1β antibody therapy in arrhythmogenic cardiomyopathy (ACM)” (Beth Israel Deaconess Medical Center, Inc., priority 2019, dated 2026):
“Also recorded” adds a separate entry of the source.

Tested on: Dsg2^mut/mut mice
Test: Cytokine arrays, cytokine expression in hearts of Dsg2^mut/mut mice treated with Bay 11-7082
Format: in vivo
From the text: Quantitative data (mean±SEM; n=5) for expression of selected cytokines in hearts of vehicle-treated wildtype (WT) mice, Dsg2^mut/mut mice and Dsg2^mut/mut mice treated with Bay 11-7082. * P<0.05 compared to WT; †P<0.05 for treated vs. untreated Dsg2^mut/mut mice.
To characterize production of chemical mediators of the immune response in ACM, we used arrays to measure 111 different cytokines in the hearts of Dsg2^mut/mut mice and compared the amounts to those measured in the hearts of WT mice and Dsg2^mut/mut mice treated with Bay 11-7082. We observed substantial expression of multiple cytokines in the hearts of Dsg2^mut/mut mice. […] Powerful inflammatory mediators were expressed in Dsg2^mut/mut hearts including IL-1β (up by ~13-fold compared to WT hearts), IFNγ (~5-fold), IL-12 (~6-fold) and TNFα (~2-fold). […] Finally, there were increases in some molecules that fulfill anti-inflammatory roles such as IL-1Ra (up by ~4-fold).

[1] = cytokine expression level, mouse heart

Cc1ccc(S(=O)(=O)/C=C/C#N)cc1 [Bay11-7082]
IL-1β (IL-1F2), Dsg2^mut/mut (Bay11-7082) vs Dsg2^mut/mut [1]: <1 | IL-1β (IL-1F2), Dsg2^mut/mut (Bay11-7082) vs WT [1]: 6-10 | IL-2, Dsg2^mut/mut (Bay11-7082) vs Dsg2^mut/mut [1]: <1 | IL-2, Dsg2^mut/mut (Bay11-7082) vs WT [1]: <1 | IL-3, Dsg2^mut/mut (Bay11-7082) vs Dsg2^mut/mut [1]: <1 | IL-3, Dsg2^mut/mut (Bay11-7082) vs WT [1]: <1 | IL-4, Dsg2^mut/mut (Bay11-7082) vs Dsg2^mut/mut [1]: <1 | IL-4, Dsg2^mut/mut (Bay11-7082) vs WT [1]: <1 | IL-5, Dsg2^mut/mut (Bay11-7082) vs Dsg2^mut/mut [1]: <1 | IL-5, Dsg2^mut/mut (Bay11-7082) vs WT [1]: <1 | IL-6, Dsg2^mut/mut (Bay11-7082) vs Dsg2^mut/mut [1]: <1 | IL-6, Dsg2^mut/mut (Bay11-7082) vs WT [1]: <1 | IL-7, Dsg2^mut/mut (Bay11-7082) vs Dsg2^mut/mut [1]: <1 | IL-7, Dsg2^mut/mut (Bay11-7082) vs WT [1]: <1 | IL-10, Dsg2^mut/mut (Bay11-7082) vs Dsg2^mut/mut [1]: <1 | IL-10, Dsg2^mut/mut (Bay11-7082) vs WT [1]: <1 | IL-11, Dsg2^mut/mut (Bay11-7082) vs Dsg2^mut/mut [1]: <1 | IL-11, Dsg2^mut/mut (Bay11-7082) vs WT [1]: <1 | IL-12 p40, Dsg2^mut/mut (Bay11-7082) vs Dsg2^mut/mut [1]: <1 | IL-12 p40, Dsg2^mut/mut (Bay11-7082) vs WT [1]: 1-2 | IL-13, Dsg2^mut/mut (Bay11-7082) vs Dsg2^mut/mut [1]: <1 | IL-13, Dsg2^mut/mut (Bay11-7082) vs WT [1]: 1-2 | IL-15, Dsg2^mut/mut (Bay11-7082) vs Dsg2^mut/mut [1]: <1 | IL-15, Dsg2^mut/mut (Bay11-7082) vs WT [1]: 2-4 | IL-17a, Dsg2^mut/mut (Bay11-7082) vs Dsg2^mut/mut [1]: <1 | IL-17a, Dsg2^mut/mut (Bay11-7082) vs WT [1]: <1 | IL-22, Dsg2^mut/mut (Bay11-7082) vs Dsg2^mut/mut [1]: <1 | IL-22, Dsg2^mut/mut (Bay11-7082) vs WT [1]: <1 | IL-23, Dsg2^mut/mut (Bay11-7082) vs Dsg2^mut/mut [1]: <1 | IL-23, Dsg2^mut/mut (Bay11-7082) vs WT [1]: <1 | IL-27 p28, Dsg2^mut/mut (Bay11-7082) vs Dsg2^mut/mut [1]: <1 | IL-27 p28, Dsg2^mut/mut (Bay11-7082) vs WT [1]: <1 | IL-28A/B, Dsg2^mut/mut (Bay11-7082) vs Dsg2^mut/mut [1]: <1 | IL-28A/B, Dsg2^mut/mut (Bay11-7082) vs WT [1]: 1-2 | IL-33, Dsg2^mut/mut (Bay11-7082) vs Dsg2^mut/mut [1]: <1 | IL-33, Dsg2^mut/mut (Bay11-7082) vs WT [1]: 2-4 | IP-10 (CXL10/CRG-2), Dsg2^mut/mut (Bay11-7082) vs Dsg2^mut/mut [1]: <1 | IP-10 (CXL10/CRG-2), Dsg2^mut/mut (Bay11-7082) vs WT [1]: <1 | KC (CXCL1), Dsg2^mut/mut (Bay11-7082) vs Dsg2^mut/mut [1]: <1 | KC (CXCL1), Dsg2^mut/mut (Bay11-7082) vs WT [1]: <1 | LDL R, Dsg2^mut/mut (Bay11-7082) vs Dsg2^mut/mut [1]: 1-2 | LDL R, Dsg2^mut/mut (Bay11-7082) vs WT [1]: 1-2 | LIF, Dsg2^mut/mut (Bay11-7082) vs Dsg2^mut/mut [1]: <1 | LIF, Dsg2^mut/mut (Bay11-7082) vs WT [1]: <1 | LIX, Dsg2^mut/mut (Bay11-7082) vs Dsg2^mut/mut [1]: <1 | LIX, Dsg2^mut/mut (Bay11-7082) vs WT [1]: >10 | Leptin, Dsg2^mut/mut (Bay11-7082) vs Dsg2^mut/mut [1]: <1 | Leptin, Dsg2^mut/mut (Bay11-7082) vs WT [1]: 1-2 | Lipocalin-2/NGAL, Dsg2^mut/mut (Bay11-7082) vs Dsg2^mut/mut [1]: <1 | Lipocalin-2/NGAL, Dsg2^mut/mut (Bay11-7082) vs WT [1]: <1 | M-CSF, Dsg2^mut/mut (Bay11-7082) vs Dsg2^mut/mut [1]: 1-2 | M-CSF, Dsg2^mut/mut (Bay11-7082) vs WT [1]: >20 | MCP-5 (CCL12), Dsg2^mut/mut (Bay11-7082) vs Dsg2^mut/mut [1]: <1 | MCP-5 (CCL12), Dsg2^mut/mut (Bay11-7082) vs WT [1]: <1 | MIP-2 (CXCL2), Dsg2^mut/mut (Bay11-7082) vs Dsg2^mut/mut [1]: <1 | MIP-2 (CXCL2), Dsg2^mut/mut (Bay11-7082) vs WT [1]: <1 | MMP-2, Dsg2^mut/mut (Bay11-7082) vs Dsg2^mut/mut [1]: 1-2 | MMP-2, Dsg2^mut/mut (Bay11-7082) vs WT [1]: 4-6 | MMP-3, Dsg2^mut/mut (Bay11-7082) vs Dsg2^mut/mut [1]: 1-2 | MMP-3, Dsg2^mut/mut (Bay11-7082) vs WT [1]: <1 | MMP-9, Dsg2^mut/mut (Bay11-7082) vs Dsg2^mut/mut [1]: <1 | MMP-9, Dsg2^mut/mut (Bay11-7082) vs WT [1]: <1 | Myeloperoxidase, Dsg2^mut/mut (Bay11-7082) vs Dsg2^mut/mut [1]: <1 | Myeloperoxidase, Dsg2^mut/mut (Bay11-7082) vs WT [1]: 2-4 | Osteopontin (OPN), Dsg2^mut/mut (Bay11-7082) vs Dsg2^mut/mut [1]: <1 | Osteopontin (OPN), Dsg2^mut/mut (Bay11-7082) vs WT [1]: 4-6 | Osteoprotegerin/TNFRSF11B, Dsg2^mut/mut (Bay11-7082) vs Dsg2^mut/mut [1]: <1 | Osteoprotegerin/TNFRSF11B, Dsg2^mut/mut (Bay11-7082) vs WT [1]: <1 | P-Selectin/CD62P, Dsg2^mut/mut (Bay11-7082) vs Dsg2^mut/mut [1]: <1 | P-Selectin/CD62P, Dsg2^mut/mut (Bay11-7082) vs WT [1]: >10 | PD-EGF/Thymidine phosphorylase, Dsg2^mut/mut (Bay11-7082) vs Dsg2^mut/mut [1]: <1 | PD-EGF/Thymidine phosphorylase, Dsg2^mut/mut (Bay11-7082) vs WT [1]: <1 | PDGF-BB, Dsg2^mut/mut (Bay11-7082) vs Dsg2^mut/mut [1]: <1 | PDGF-BB, Dsg2^mut/mut (Bay11-7082) vs WT [1]: 1-2 | Pentraxin 2/SAP, Dsg2^mut/mut (Bay11-7082) vs Dsg2^mut/mut [1]: <1 | Pentraxin 2/SAP, Dsg2^mut/mut (Bay11-7082) vs WT [1]: 1-2 | Pentraxin 3/TSG-14, Dsg2^mut/mut (Bay11-7082) vs Dsg2^mut/mut [1]: <1 | Pentraxin 3/TSG-14, Dsg2^mut/mut (Bay11-7082) vs WT [1]: <1 | Periostin/OSF-2, Dsg2^mut/mut (Bay11-7082) vs Dsg2^mut/mut [1]: <1 | Periostin/OSF-2, Dsg2^mut/mut (Bay11-7082) vs WT [1]: <1 | Pref-1/DLK-1/FA1, Dsg2^mut/mut (Bay11-7082) vs Dsg2^mut/mut [1]: <1 | Pref-1/DLK-1/FA1, Dsg2^mut/mut (Bay11-7082) vs WT [1]: 6-10 | Proliferin, Dsg2^mut/mut (Bay11-7082) vs Dsg2^mut/mut [1]: <1 | Proliferin, Dsg2^mut/mut (Bay11-7082) vs WT [1]: 6-10 | Proprotein Convertase 9/PCSK9, Dsg2^mut/mut (Bay11-7082) vs Dsg2^mut/mut [1]: 1-2 | Proprotein Convertase 9/PCSK9, Dsg2^mut/mut (Bay11-7082) vs WT [1]: <1 | RAGE, Dsg2^mut/mut (Bay11-7082) vs Dsg2^mut/mut [1]: <1 | RAGE, Dsg2^mut/mut (Bay11-7082) vs WT [1]: <1 | RBP4, Dsg2^mut/mut (Bay11-7082) vs Dsg2^mut/mut [1]: <1 | RBP4, Dsg2^mut/mut (Bay11-7082) vs WT [1]: 1-2 | Reg3G, Dsg2^mut/mut (Bay11-7082) vs Dsg2^mut/mut [1]: <1 | Reg3G, Dsg2^mut/mut (Bay11-7082) vs WT [1]: 6-10 | Resistin, Dsg2^mut/mut (Bay11-7082) vs Dsg2^mut/mut [1]: <1 | Resistin, Dsg2^mut/mut (Bay11-7082) vs WT [1]: 2-4 | Serpin E1/PAI-1, Dsg2^mut/mut (Bay11-7082) vs Dsg2^mut/mut [1]: <1 | Serpin E1/PAI-1, Dsg2^mut/mut (Bay11-7082) vs WT [1]: 6-10 | Serpin F1/PEDF, Dsg2^mut/mut (Bay11-7082) vs Dsg2^mut/mut [1]: <1 | Serpin F1/PEDF, Dsg2^mut/mut (Bay11-7082) vs WT [1]: <1 | TIM-1/KIM-1/HAVCR, Dsg2^mut/mut (Bay11-7082) vs Dsg2^mut/mut [1]: 1-2 | TIM-1/KIM-1/HAVCR, Dsg2^mut/mut (Bay11-7082) vs WT [1]: <1 | TNF-α, Dsg2^mut/mut (Bay11-7082) vs Dsg2^mut/mut [1]: <1 | TNF-α, Dsg2^mut/mut (Bay11-7082) vs WT [1]: 1-2 | Thrombopoeitin, Dsg2^mut/mut (Bay11-7082) vs Dsg2^mut/mut [1]: 1-2 | Thrombopoeitin, Dsg2^mut/mut (Bay11-7082) vs WT [1]: <1 | VCAM-1/CD106, Dsg2^mut/mut (Bay11-7082) vs Dsg2^mut/mut [1]: 1-2 | VCAM-1/CD106, Dsg2^mut/mut (Bay11-7082) vs WT [1]: 6-10 | VEGF, Dsg2^mut/mut (Bay11-7082) vs Dsg2^mut/mut [1]: 1-2 | VEGF, Dsg2^mut/mut (Bay11-7082) vs WT [1]: <1 | WISP-1/CCN4, Dsg2^mut/mut (Bay11-7082) vs Dsg2^mut/mut [1]: <1 | WISP-1/CCN4, Dsg2^mut/mut (Bay11-7082) vs WT [1]: <1 | sICAM-1 (CD54), Dsg2^mut/mut (Bay11-7082) vs Dsg2^mut/mut [1]: <1 | sICAM-1 (CD54), Dsg2^mut/mut (Bay11-7082) vs WT [1]: 1-2 | increased expression of cytokines in Dsg2^mut/mut hearts (treated vs untreated Dsg2^mut/mut mice, FIG. 1, result in words): attenuation; also recorded: blunted or fully normalized
